Assay results as given in PMC10507085, “Pharmacological inhibition of TBK1/IKKε blunts immunopathology in a murine model of SARS-CoV-2 infection” (Nature Communications, 2023).
pKd: −log10 of the molar value.

Tests used:
Assay in all cases: biochemical
Design in all cases: KINOMEscan competition binding, DNA-tagged kinase against immobilised ligand, qPCR read-out
MAPKAPK2 = MAPKAPK2 (Homo sapiens, UniProt P49137); details: read-out: Percent Control
MYLK4 = MYLK4 (Homo sapiens, UniProt Q86YV6); details: read-out: Percent Control
IKBKB = IKBKB (Homo sapiens, UniProt O14920); details: read-out: Percent Control
PIP4K2B = PIP4K2B (Homo sapiens, UniProt P78356); details: read-out: Percent Control
Chain of PIP4K2B (P78356 whole entry): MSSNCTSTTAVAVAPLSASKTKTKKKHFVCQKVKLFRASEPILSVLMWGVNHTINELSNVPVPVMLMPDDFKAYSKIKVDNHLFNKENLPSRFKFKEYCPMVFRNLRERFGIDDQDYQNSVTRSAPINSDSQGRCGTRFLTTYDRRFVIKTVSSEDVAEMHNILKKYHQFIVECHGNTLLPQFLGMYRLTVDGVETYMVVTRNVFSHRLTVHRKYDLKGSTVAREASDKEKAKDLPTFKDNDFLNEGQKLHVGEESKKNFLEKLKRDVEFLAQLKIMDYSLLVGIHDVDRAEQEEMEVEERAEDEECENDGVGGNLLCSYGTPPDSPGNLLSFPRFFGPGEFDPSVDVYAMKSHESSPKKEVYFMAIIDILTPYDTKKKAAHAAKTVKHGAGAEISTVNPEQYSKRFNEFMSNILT

DYRK2 = DYRK2 (Homo sapiens, UniProt Q92630)
Chain of DYRK2 (Q92630 whole entry): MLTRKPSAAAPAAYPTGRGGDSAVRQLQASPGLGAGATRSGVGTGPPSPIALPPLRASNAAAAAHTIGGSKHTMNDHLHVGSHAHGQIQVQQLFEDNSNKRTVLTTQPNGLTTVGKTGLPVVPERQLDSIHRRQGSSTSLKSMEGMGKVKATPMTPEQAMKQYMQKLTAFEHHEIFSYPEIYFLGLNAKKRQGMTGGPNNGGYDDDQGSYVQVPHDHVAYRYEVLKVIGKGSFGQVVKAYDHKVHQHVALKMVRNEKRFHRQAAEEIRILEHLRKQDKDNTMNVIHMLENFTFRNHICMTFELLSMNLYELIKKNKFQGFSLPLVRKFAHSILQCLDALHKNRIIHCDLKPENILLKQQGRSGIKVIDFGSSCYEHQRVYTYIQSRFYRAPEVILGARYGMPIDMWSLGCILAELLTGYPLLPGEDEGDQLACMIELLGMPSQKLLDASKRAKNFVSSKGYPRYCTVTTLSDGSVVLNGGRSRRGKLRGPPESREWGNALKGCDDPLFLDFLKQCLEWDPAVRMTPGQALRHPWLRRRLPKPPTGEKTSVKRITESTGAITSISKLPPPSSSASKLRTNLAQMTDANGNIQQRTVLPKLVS
Procedure, shortened: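 RT-qPCR read-out of DNA-tagged kinase captured on immobilised ligand; less captured kinase means the compound displaced the kinase-ligand interaction. Compound was tested as an 11-point, 3-fold dilution series made in DMSO at 100× and brought to 1× final.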

STK38L = STK38L (Homo sapiens, UniProt Q9Y2H1); details: read-out: Percent Control
MAPK14 = MAPK14 (Homo sapiens, UniProt Q16539); details: read-out: Percent Control
DAPK2 = DAPK2 (Homo sapiens, UniProt Q9UIK4); details: read-out: Percent Control
Chain of DAPK2 (Q9UIK4 whole entry): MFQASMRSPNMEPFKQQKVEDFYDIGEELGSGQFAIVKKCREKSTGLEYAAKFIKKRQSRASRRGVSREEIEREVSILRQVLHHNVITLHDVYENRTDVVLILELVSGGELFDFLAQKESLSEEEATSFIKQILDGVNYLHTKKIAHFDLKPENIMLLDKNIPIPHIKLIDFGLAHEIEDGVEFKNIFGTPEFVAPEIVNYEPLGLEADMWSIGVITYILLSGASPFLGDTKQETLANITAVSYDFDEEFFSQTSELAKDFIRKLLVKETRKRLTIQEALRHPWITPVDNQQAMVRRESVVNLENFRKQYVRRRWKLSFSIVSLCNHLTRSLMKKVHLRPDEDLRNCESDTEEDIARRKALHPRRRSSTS

NTRK2 = NTRK2 (Homo sapiens, UniProt Q16620); details: read-out: Percent Control
NEK9 = NEK9 (Homo sapiens, UniProt Q8TD19); details: read-out: Percent Control
Chain of NEK9 (Q8TD19 whole entry): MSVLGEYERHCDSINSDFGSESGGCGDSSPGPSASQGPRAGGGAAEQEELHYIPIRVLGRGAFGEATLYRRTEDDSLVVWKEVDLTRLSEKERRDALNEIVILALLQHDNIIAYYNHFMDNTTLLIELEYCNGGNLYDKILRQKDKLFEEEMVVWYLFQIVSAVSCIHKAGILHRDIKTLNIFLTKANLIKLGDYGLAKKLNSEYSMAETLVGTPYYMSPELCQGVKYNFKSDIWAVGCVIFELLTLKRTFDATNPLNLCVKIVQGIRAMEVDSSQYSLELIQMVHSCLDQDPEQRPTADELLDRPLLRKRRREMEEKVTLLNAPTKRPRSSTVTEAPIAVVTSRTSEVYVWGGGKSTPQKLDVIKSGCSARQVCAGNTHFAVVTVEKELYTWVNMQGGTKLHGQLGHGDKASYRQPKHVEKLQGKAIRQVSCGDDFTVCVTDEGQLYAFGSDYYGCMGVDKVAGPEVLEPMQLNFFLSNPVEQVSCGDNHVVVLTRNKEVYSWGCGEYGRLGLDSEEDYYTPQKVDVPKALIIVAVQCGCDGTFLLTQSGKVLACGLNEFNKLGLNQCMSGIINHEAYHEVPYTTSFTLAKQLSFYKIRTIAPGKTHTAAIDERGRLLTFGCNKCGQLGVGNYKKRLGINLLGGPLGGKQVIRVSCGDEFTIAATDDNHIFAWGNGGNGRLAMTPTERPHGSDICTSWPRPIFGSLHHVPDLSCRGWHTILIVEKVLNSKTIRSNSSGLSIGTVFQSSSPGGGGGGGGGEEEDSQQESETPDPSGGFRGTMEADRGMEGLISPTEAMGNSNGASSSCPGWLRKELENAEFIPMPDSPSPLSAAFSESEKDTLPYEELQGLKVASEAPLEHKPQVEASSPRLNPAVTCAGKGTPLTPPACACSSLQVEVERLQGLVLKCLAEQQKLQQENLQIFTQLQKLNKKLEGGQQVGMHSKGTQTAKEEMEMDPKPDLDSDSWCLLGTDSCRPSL

SNRK = SNRK (Homo sapiens, UniProt Q9NRH2); details: read-out: Percent Control
DAPK1 = DAPK1 (Homo sapiens, UniProt P53355); details: read-out: Percent Control
Chain of DAPK1 (P53355 whole entry): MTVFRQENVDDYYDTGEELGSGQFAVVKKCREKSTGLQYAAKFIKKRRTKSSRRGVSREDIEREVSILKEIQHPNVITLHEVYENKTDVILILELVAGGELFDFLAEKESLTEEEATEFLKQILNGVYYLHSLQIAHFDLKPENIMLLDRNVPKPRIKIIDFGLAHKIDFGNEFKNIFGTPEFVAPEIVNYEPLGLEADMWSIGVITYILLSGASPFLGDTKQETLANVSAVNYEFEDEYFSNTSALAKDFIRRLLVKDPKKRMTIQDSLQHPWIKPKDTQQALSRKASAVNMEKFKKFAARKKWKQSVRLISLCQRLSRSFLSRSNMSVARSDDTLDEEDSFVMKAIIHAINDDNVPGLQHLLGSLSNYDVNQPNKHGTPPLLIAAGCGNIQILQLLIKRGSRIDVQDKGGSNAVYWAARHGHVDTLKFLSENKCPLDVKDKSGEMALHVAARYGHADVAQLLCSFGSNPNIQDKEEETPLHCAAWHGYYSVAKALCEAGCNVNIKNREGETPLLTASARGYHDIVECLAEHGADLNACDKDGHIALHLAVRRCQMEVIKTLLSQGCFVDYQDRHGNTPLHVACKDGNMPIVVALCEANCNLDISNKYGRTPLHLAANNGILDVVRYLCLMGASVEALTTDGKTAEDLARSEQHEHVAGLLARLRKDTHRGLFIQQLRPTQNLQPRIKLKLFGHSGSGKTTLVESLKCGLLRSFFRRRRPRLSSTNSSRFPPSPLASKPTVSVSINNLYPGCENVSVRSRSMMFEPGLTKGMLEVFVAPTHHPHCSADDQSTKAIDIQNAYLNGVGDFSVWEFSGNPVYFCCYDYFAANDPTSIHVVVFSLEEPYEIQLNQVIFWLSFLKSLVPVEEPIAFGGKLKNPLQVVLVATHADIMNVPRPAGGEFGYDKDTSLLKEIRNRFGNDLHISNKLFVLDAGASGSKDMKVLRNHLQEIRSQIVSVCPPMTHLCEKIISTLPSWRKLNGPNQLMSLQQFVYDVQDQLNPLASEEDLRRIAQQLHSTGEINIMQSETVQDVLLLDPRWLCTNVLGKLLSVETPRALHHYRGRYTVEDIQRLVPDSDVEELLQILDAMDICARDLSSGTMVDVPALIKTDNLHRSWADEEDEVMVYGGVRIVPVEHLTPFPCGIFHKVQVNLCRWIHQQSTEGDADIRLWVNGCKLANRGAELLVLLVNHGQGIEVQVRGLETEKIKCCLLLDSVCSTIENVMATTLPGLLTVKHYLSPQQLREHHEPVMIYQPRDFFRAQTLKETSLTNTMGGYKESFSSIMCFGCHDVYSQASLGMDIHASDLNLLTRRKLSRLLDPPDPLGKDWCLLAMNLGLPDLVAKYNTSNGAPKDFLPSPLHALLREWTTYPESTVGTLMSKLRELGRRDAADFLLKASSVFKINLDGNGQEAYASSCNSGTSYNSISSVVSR

[1] = target: T1, RSK2(Kin.Dom.2-C-terminal) (Homo sapiens, UniProt P51812); details: read-out: Percent Control
T1 construct: gene RPS6KA3; Kin.Dom.2 C-terminal

CSF1R = CSF1R (Homo sapiens, UniProt P07333); details: read-out: Percent Control
SGK2 = SGK2 (Homo sapiens, UniProt Q9HBY8); details: read-out: Percent Control
DYRK1A = DYRK1A (Homo sapiens, UniProt Q13627); details: read-out: Percent Control
PAK4 = PAK4 (Homo sapiens, UniProt O96013); details: read-out: Percent Control
Chain of PAK4 (O96013 whole entry): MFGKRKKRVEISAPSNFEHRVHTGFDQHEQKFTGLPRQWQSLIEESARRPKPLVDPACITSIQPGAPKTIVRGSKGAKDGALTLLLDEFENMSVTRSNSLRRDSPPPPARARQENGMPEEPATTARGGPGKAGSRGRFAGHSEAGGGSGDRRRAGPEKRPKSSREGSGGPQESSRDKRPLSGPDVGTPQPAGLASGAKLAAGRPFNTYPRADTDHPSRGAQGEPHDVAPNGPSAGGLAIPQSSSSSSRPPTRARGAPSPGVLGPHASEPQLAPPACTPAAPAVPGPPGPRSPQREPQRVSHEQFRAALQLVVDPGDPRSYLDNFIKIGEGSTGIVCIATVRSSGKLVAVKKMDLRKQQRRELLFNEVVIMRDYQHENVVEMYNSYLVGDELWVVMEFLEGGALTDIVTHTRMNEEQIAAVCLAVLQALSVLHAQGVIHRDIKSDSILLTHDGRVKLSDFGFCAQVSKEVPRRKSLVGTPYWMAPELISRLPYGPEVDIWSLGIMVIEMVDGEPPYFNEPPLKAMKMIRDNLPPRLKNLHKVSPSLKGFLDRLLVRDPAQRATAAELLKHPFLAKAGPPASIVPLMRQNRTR

CAMK1G = CAMK1G (Homo sapiens, UniProt Q96NX5); details: read-out: Percent Control
ABL1-nonphosphorylated = target: T2, ABL1-nonphosphorylated (Homo sapiens, UniProt P00519); details: read-out: Percent Control
T2 construct: nonphosphorylated

CSNK2A1 = CSNK2A1 (Homo sapiens, UniProt P68400); details: read-out: Percent Control
Chain of CSNK2A1 (P68400 whole entry): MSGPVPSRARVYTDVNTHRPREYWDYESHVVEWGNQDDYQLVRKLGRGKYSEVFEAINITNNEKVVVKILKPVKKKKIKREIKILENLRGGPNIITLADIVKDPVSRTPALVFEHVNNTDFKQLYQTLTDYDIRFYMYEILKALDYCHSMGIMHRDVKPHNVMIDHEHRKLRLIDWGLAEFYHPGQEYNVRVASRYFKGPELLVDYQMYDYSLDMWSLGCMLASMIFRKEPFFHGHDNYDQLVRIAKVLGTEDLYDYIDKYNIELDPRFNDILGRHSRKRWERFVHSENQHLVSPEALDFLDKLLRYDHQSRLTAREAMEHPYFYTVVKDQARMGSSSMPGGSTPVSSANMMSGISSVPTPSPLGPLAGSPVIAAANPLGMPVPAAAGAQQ

Oc1ccc(C2=Cc3ccc(O)cc3OC2)cc1 [compound 1, idronoxil]
remaining binding at 10 µM (MAPKAPK2): 65% | remaining binding at 10 µM (MYLK4): 26% | remaining binding at 10 µM (IKBKB): 73% | remaining binding at 10 µM (PIP4K2B): 100% | pKd (DYRK2): 5.57 | remaining binding at 10 µM (DYRK2; read-out: Percent Control): 11% | remaining binding at 10 µM (STK38L): 92% | remaining binding at 10 µM (MAPK14): 90% | remaining binding at 10 µM (DAPK2): 56% | remaining binding at 10 µM (NTRK2): 62% | remaining binding at 10 µM (NEK9): 100% | remaining binding at 10 µM (SNRK): 81% | remaining binding at 10 µM (DAPK1): 53% | remaining binding at 10 µM [1]: 95% | remaining binding at 10 µM (CSF1R): 26% | remaining binding at 10 µM (SGK2): 95% | remaining binding at 10 µM (DYRK1A): 34% | remaining binding at 10 µM (PAK4): 76% | remaining binding at 10 µM (CAMK1G): 80% | remaining binding at 10 µM (ABL1-nonphosphorylated): 32% | remaining binding at 10 µM (CSNK2A1): 49%
